Laboratory results from paper PMC8508710, “Biochemical Characterization of 13-Lipoxygenases of Arabidopsis thaliana” (International Journal of Molecular Sciences, 2021).

Legend:
[1] = biological target: T1, LOX2 (Arabidopsis thaliana, UniProt P38418); assay: Intrinsic fluorescence of LOX2; type: binding; parameters: made in house; host or cells: E. coli Nico21(DE3), pET15b; settings: as Figure 5B; for Emission maximum: control 336.5±0.6, in nm (unit assumed); for Relative fluorescence intensity at emission maximum: λExc = 280 nm, control 125.5±2.0
T1 sequence (P38418 71-896): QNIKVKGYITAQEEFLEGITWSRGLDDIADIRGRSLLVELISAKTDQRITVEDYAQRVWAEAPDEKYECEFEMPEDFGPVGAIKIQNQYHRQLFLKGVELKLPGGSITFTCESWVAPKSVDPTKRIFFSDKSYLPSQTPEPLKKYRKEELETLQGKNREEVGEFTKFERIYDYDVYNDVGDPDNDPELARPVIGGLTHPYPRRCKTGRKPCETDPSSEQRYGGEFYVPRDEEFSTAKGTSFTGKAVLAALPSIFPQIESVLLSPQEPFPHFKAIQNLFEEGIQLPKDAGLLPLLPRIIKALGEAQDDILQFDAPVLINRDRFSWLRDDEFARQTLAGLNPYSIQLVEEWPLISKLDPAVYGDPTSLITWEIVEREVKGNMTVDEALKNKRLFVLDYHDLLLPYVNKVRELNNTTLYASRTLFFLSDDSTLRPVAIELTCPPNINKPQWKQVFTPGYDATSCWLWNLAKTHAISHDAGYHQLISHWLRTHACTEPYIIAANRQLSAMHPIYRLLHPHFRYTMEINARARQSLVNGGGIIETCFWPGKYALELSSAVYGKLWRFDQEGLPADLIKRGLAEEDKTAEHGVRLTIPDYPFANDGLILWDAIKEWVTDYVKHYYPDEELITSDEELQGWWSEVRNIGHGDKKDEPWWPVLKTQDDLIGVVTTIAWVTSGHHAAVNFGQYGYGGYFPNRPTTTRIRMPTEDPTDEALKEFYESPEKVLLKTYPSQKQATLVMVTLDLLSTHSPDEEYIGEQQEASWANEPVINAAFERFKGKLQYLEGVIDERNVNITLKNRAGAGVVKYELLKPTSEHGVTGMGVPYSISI
Method: (§1) Figure 5 Analysis of the interaction of 12-OPDA and MJ with LOX4. […] LOX4 (0.22 µg/µL) was incubated with compounds at indicated concentrations for 10 min at 30 °C, and residual LOX activity was measured spectrophotometrically by the injection of 3 µL incubation mixture into 123 µL LeA (4.8 µM in 50 mM Tris-HCl, pH 7.2). […] (B) Intrinsic fluorescence of LOX4 incubated with 12-OPDA, MJ and solvent (control). Here, 120 µL LOX4 (0.2 µg/µL) was mixed with 15 µL chemical (1.4 mM in 50 mM K-Pi, pH 8.0) or solvent (control) and analyzed for intrinsic fluorescence emission after excitation at λExc = 280 nm. Mean graphs are shown (n = 4).
(§2) Int. J. Mol. Sci. 2021, 22, x FOR PEER REVIEW 11 of 17
(§3) Figure S7. Interaction and activity studies of LOX2, LOX3 and LOX6. (A) LOX2, LOX3 and LOX6 activities in presence of increasing amounts of MJ and 12-OPDA. Analysis was performed as described for IC50 determination of LOX4 (see Figure 5A). 100% activity […]
(§4) (B) Intrinsic fluorescence of LOX2 and LOX3 incubated with 12-OPDA, MJ and solvent control. Analysis was performed as in Figure 5B. […]

[2] = biological target: T2, LOX3 (Arabidopsis thaliana, UniProt Q9LNR3); assay: Intrinsic fluorescence of LOX3; type: binding; parameters: made in house; host or cells: E. coli Nico21(DE3), pET15b; settings: as Figure 5B; for Emission maximum: control 330.8±1.6, in nm (unit assumed); for Relative fluorescence intensity at emission maximum: λExc = 280 nm, control 134.5±3.9
T2 sequence (Q9LNR3 71-919): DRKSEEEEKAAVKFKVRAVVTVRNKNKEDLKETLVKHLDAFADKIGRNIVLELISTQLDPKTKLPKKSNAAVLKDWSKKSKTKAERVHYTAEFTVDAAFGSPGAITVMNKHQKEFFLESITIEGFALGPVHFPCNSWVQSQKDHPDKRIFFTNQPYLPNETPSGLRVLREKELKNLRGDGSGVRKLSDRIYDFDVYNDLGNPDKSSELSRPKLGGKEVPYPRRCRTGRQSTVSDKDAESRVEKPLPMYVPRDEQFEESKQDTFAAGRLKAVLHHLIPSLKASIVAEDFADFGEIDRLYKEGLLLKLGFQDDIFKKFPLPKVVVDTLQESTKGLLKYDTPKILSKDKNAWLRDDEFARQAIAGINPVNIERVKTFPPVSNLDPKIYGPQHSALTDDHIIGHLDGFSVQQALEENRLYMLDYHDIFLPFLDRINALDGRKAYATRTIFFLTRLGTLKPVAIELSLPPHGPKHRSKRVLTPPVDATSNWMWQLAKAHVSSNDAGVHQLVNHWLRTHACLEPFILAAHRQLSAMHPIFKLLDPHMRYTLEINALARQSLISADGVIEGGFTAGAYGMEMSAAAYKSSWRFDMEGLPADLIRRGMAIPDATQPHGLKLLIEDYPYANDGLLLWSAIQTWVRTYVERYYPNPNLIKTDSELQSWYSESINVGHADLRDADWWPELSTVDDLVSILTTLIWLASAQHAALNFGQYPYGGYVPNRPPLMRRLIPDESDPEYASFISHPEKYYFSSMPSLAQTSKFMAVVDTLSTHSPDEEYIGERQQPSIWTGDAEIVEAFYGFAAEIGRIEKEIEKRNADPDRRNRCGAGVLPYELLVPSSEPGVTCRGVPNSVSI
Method: as §1, §2, §3, §4

Row | SMILES | Emission maximum [1] | Relative fluorescence intensity at emission maximum [1] | Emission maximum [2] | Relative fluorescence intensity at emission maximum [2]
1 | CCC=CCC1C(=O)C=CC1CCCCCCCC(=O)O (stereo not drawn) [12-OPDA, cis-(+)-12-oxophytodienoic acid] | 337.2±0.3 | 117.5±2.0 | 333.2±0.3 | 115.2±1.3
2 | CC/C=C\CC1C(=O)CCC1CC(=O)OC (centres unmarked) [MJ, methyl jasmonate] | 337.3±0.6 | 119.7±2.7 | 331.7±0.8 | 126.4±3.0
